Measured values reported in patent US20220380829A1, “Method of Diagonosizing Pathogens and their Antimicrobial Susceptibility” (HANGZHOU DIAN MEDICAL LABORATORY CO., LTD., priority 2019, published 2022).

Tested on: Candida tropicalis
Assay: Broth microdilution (M27-A3, M27-S4), gold standard culture-based AST
Format: cell-based

## OC(Cn1cncn1)(Cn1cncn1)c1ccc(F)cc1F [FLU]
blind-1
  Resistance profiles by broth microdilution (the gold standard): R
blind-2
  Resistance profiles by broth microdilution (the gold standard): S
blind-3
  Resistance profiles by broth microdilution (the gold standard): R
blind-4
  Resistance profiles by broth microdilution (the gold standard): R
blind-5
  Resistance profiles by broth microdilution (the gold standard): S
blind-6
  Resistance profiles by broth microdilution (the gold standard): S
